Source: US20240294881A1, “CELL CULTURE SUPPLEMENT FOR PRODUCING STEM CELLS, AND METHOD FOR PRODUCING STEM CELLS” (OPTICELL, INC, priority 2021, published 2024)

Columns and labels:
Format in all cases: cell-based
[1] = tested on: healthy human neonatal fibroblasts; assay: Spheroid culture of healthy human neonatal fibroblasts in coated 6-well flat-bottom vessel, microscope observation; settings: PS 6-well flat-bottom vessel coated with 0.125% solution; day 2 to day 20; uncoated control adhered and grew 2D
Experimental: 2 mL of an aqueous solution of the polypeptide represented by formula (1) (0.125%) (cell culture supplement) was added to a commercial polystyrene-made 6-well flat-bottom culture vessel (CellBIND, Corning) and allowed to stand at 4° C. for 24 hours.
Thereafter, the excess cell culture supplement was removed, and the remaining solution was dried in a dryer at 37° C. for 96 hours to complete coating treatment with the cell culture supplement. Healthy human neonatal fibroblasts (ATCC PCS-201-010, primary dermal fibroblasts, neonatal, referred to as “fibroblasts” below) were maintained and cultured in a serum-free medium (Promo Cell; fibroblast basal medium, basic-FGF 5 ng/mb and insulin 2.5 μg/mL). The fibroblasts floating in 2 mL of the medium were seeded in the culture vessel coated with the cell culture supplement at 2×10^6 cells/well and cultured at 37° C. under 5% CO2 conditions. For a control, fibroblasts were seeded in a culture vessel of the same type with no coating applied with the cell culture supplement (2×10^6 cells/well). Observation was performed with a microscope on day 2 and day 20 after the start of culture to capture images of spheroid formation (FIG. 5).

[2] = tested on: healthy human neonatal fibroblasts; assay: Spheroid culture of healthy human neonatal fibroblasts in coated 96-well round-bottom vessel, microscope observation; settings: PS 96-well round-bottom vessel coated with 0.125% solution; 4×10^4 cells/well
Experimental: To observe the spheroid formation and stem cell induction in healthy human neonatal fibroblasts over time, culture was performed by using a 96-well round-bottom culture vessel. An aqueous solution of the polypeptide represented by formula (1) (0.125%) (cell culture supplement) was added to a commercial polystyrene-made 96-well round-bottom culture vessel (Nunclon Delta 96U Bottom, Thermo Fisher Scientific) at 100 μL/well and allowed to stand at 4° C. for 24 hours. Thereafter, the excess cell culture supplement was removed, and the remaining solution was dried in a dryer at 37° C. for 96 hours to complete coating treatment with the cell culture supplement. Fibroblasts were maintained and cultured in a serum-free medium (Promo Cell; fibroblast basal medium, basic-FGF 5 ng/ml and insulin 2.5 μg/mL). The fibroblasts floating in the medium were seeded in the culture vessel coated with the cell culture supplement at 4×10^4 cells/well/100 μL and cultured at 37° C. under 5% CO2 conditions.

[3] = tested on: healthy human adult mammary gland epithelial cells; assay: Real-time PCR of stem cell and three germ layer marker genes in mammary gland epithelial cell spheroids
Experimental: The analysis of expression of gene mRNA was performed by real-time PCR.
Specifically, on day 20 from the start of culture, spheroids were collected in a 15-mL centrifuge tube and centrifuged, and then washed with phosphate buffered saline (−) and collected. Two-dimensionally cultured cells in the culture vessel that was not coated with the cell culture supplement (control) (day 0) were washed with PBS (−) after removal of the medium, and the cells were detached from the plate with 0.05% trypsin-EGTA and dissociated, followed by collecting the cells in a 15-mL centrifuge tube and washing with PBS (−) again. A NucleoZOL reagent (Macherey-Nagel) was added to the spheroids, and RNA extracted according to the protocol recommended by the reagent manufacturer was determined to be template RNA. For real-time PCR analysis, PCR probes from QuantiFast Probe RT-PCR Kits (QIAGEN; No. 204454) and TagMan Gene Expression Assay Probe (Thermo Fisher Scientific) were used. PCR analysis was performed with a Rotor-Gene Q (QIAGEN) apparatus. The genes targeted for detection were the following three transcription factors: SOX2 (sex-determining region Y-box 2), OCT4 (octamer binding transcription factor 4), and NANOG (homeodomain transcription factor) as the probes for detecting the expression of undifferentiated stem cell marker genes; and β-actin was used as an endogenous control gene (FIG. 16).
For probes for detection of genes associated with primordial three germ layers, the following three triploblastic marker genes were used: SOX17 (sex-determining region Y-box 17; endoderm), GATA6 (GATA family of zinc finger transcription factors; mesoderm), and MAP2 (microtubule associated protein 2: ectoderm). For an endogenous control gene, TaqMan Gene Expression Assay Probe of ß-actin was used (FIG. 17).
In the gene expression analysis, relative quantification was performed according to the ΔΔCt method (Delta Delta Ct method). The results of analysis according to the ΔΔCt method show the amount of a gene expressed by control cells under the conditions of “no cell culture supplement, flat-bottom 2D growth, day 0” as “1.0” in relative terms, and the increase rate in “the expression level in spheroid proliferation on day 20” was determined by comparison.

[4] = tested on: HOS-143B (human osteosarcoma); assay: Study of concentration of cell culture supplement: spheroid formation; settings: 96-well flat-bottom plate, 3 days of culture
Experimental: An aqueous solution of the polypeptide represented by formula (1) (0.5%) was diluted 4-fold to 1024-fold to prepare different diluted solutions (cell culture supplement), and 100 μl of the solution was added to each well of a commercial 96-well flat-bottom plate (CellBIND, Corning) and allowed to stand at 4° C. for 16 hours.
Thereafter, the excess cell culture supplement was removed, and the remaining solution was dried under reduced pressure at room temperature for 24 hours. HOS-143B (human osteosarcoma) was seeded at 3,000 cells/well in a culture plate coated with the cell culture supplement and cultured at 37° C. under 5% CO2 conditions. The medium used was DMEM+10% FBS.

[5] = day 20 of 3D spheroid culture, coated 96-well, 2D adhesion control without supplement = 1.0, ΔΔCt
[6] = day 20 of 3D spheroid culture, 2D control without supplement day 0 = 1.0, ΔΔCt
[7] = spheroids cultured for 20 days (FIG. 17 legend)

## (Pro-Hyp-Gly)n [cell culture supplement]
[1]
  spheroid formation: formed spheroids
[2]
  spheroid formation: formed a single spheroid
[3]; day 20 of 3D spheroid culture
  GATA6 (mesoderm marker) gene expression: no gene expression of GATA6 (mesoderm marker) was detected
[3]; [5]
  NANOG gene expression level (increase vs control): 28.7 fold
  OCT4 gene expression level (increase vs control): 1.5 fold
  SOX2 gene expression level (increase vs control): 24.0 fold
[3]; [6]
  MAP2 gene expression level (increase vs control): 2.7 fold
  SOX17 gene expression level (increase vs control): 124.7 fold
[3]; [7]
  FOXA2 (endoderm) mRNA expression level: decreased
  GATA4 (mesoderm) mRNA expression: undetectable
[4]
  spheroid formation in plates coated with solutions diluted further than 256-fold: No formation of spheroids was observed
[4]; dilutions 4-fold to 1024-fold
  dilution of the 0.5% aqueous solution used for coating at which formation of spheroids was observed: ≤ 256 -fold diluted
